Measurements published in PubChem BioAssay (NCI).
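1) Cells in 96-well plates. 2) Compound, 48 h, 5 concentrations. 3) Linear interpolation between surrounding doses. 4) Unreached endpoint = highest concentration. TGI: concentration producing complete growth inhibition.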

Columns and labels:
Experiment in all cases: DTP human tumour cell line panel, 48 h
SK-MEL-2 melanoma = tested on: SK-MEL-2 melanoma
SF-539 CNS = tested on: SF-539 CNS
SNB-75 CNS = tested on: SNB-75 CNS
RPMI-8226 leukemia = tested on: RPMI-8226 leukemia
SR leukemia = tested on: SR leukemia
SW-620 colon = tested on: SW-620 colon
SK-MEL-28 melanoma = tested on: SK-MEL-28 melanoma
NCI-H23 lung = tested on: NCI-H23 lung
EKVX NSCLC = tested on: EKVX NSCLC
HOP-92 NSCLC = tested on: HOP-92 NSCLC

| Structure (SMILES) | TGI (SK-MEL-2 melanoma) [µM] | TGI (SF-539 CNS) [µM] | TGI (SNB-75 CNS) [µM] | TGI (RPMI-8226 leukemia) [µM] | TGI (SR leukemia) [µM] | TGI (SW-620 colon) [µM] | TGI (SK-MEL-28 melanoma) [µM] | TGI (NCI-H23 lung) [µM] | TGI (EKVX NSCLC) [µM] | TGI (HOP-92 NSCLC) [µM] |
| --- | --- | --- | --- | --- | --- | --- | --- | --- | --- | --- |
| CCOC(=O)C1=C(C)N(c2ccc(C)cc2)C2=C(C(=O)N(c3ccccc3)C2c2ccccc2)C1c1ccccc1 (stereo not given) | > 25 | > 25 | > 25 | > 25 | > 25 | > 25 | > 25 | > 25 | > 25 | – |
| O=C1CCC(=O)N1n1c(Cc2ccc(Cl)cc2)n[nH]c1=O | > 100 | > 100 | – | > 100 | – | > 100 | > 100 | > 100 | > 100 | > 100 |
| CC(C)[Si](OC1=CCC[C@H]2NC(=O)[C@@H](Cc3ccccc3)[C@@]12C)(C(C)C)C(C)C | 29.7 | 19.1 | 31.2 | – | 7.19 | 9.16 | 13.1 | 18.9 | 15 | 6.67 |
| COc1ccc(C(SCCO)(c2ccccc2)c2ccccc2)cc1 | 28 | 30.2 | 25.7 | – | > 100 | 81.8 | 33.6 | 34 | 28.3 | 25.4 |
| CNC(=O)N(C)COC | > 100 | > 100 | > 100 | > 100 | > 100 | > 100 | > 100 | – | > 100 | – |
| N=c1c2c(-c3ccccc3)c[nH]c2ncn1N | > 100 | > 100 | > 100 | > 100 | – | > 100 | > 100 | > 100 | > 100 | > 100 |
| CC1(CCCO)CCCCCCCCCC(C)(CCCO)C1=O (stereo not given) | > 100 | – | > 100 | > 100 | – | > 100 | > 100 | > 100 | > 100 | > 100 |
| CCOc1ccc(/C=N/[N+](C)(C)C)cc1OCC | – | > 10 | > 10 | > 10 | > 10 | > 10 | > 10 | > 10 | – | > 10 |
| NC1CC2NC3CCCCC3NC2CC1N (stereo not given) | > 100 | > 100 | > 100 | > 100 | > 100 | > 100 | > 100 | > 100 | > 100 | – |
| Cn1c(-c2ccccc2)cc2c3ccsc3c3ccsc3c21 | > 100 | > 100 | > 100 | > 100 | > 100 | > 100 | > 100 | > 100 | – | > 100 |
| N#C/C(=C\c1cc(Cl)cc(Cl)c1)c1ccccn1 | > 100 | > 100 | 36 | > 100 | > 100 | > 100 | > 100 | > 100 | 60 | – |
| COc1cc(COC(=O)N(CC(=O)O)c2ccccc2)c([N+](=O)[O-])cc1OC | – | > 100 | > 100 | > 100 | > 100 | > 100 | > 100 | > 100 | > 100 | > 100 |
| COC(=O)c1ccc(C)cc1/C=C1\Cc2ccc(C)cc2C1=O | – | 28.3 | 44 | 39.6 | 9.13 | 51.3 | 34.6 | 99.4 | 88.4 | 35.2 |
| CC(=O)OC(CCC1(C)OC1COc1ccc(CCNC(=O)c2ccccc2)cc1)C(C)(C)OC(C)=O (stereo not given) | 60.4 | > 100 | > 100 | > 100 | > 100 | > 100 | 91.8 | 97.2 | – | > 100 |
| Cc1ccc(O)c(-c2cc(-c3cccc(Cl)c3)c(C#N)c(N)n2)c1 | 31.6 | 52 | – | 48.4 | 30.3 | 40.8 | – | 77.6 | 58.9 | 48.1 |
| O=C(O)c1cnc2[nH]ccn2c1=O | – | – | > 100 | > 100 | > 100 | > 100 | > 100 | > 100 | > 100 | > 100 |
| O=c1[nH]c(Nc2cc(Cl)cc(Cl)c2)nc2nc[nH]c12 | > 75 | > 75 | > 75 | > 75 | – | > 75 | – | > 75 | > 75 | > 75 |
| O=c1[nH]c(=O)n(C2CC(O)C(CO)O2)cc1C1=NC1 (stereo not given) | > 100 | > 100 | > 100 | > 100 | – | > 100 | > 100 | > 100 | > 100 | > 100 |
